This test in a line: Inhibition of human recombinant IMPDH assessed as NADH formation by spectrophotometry.

Take `COCc1cc(Br)c(O)c(O)c1Cc1ccc(O)c(Br)c1` [AVRAINVILLEOL METHYL ETHER]: the IC50 (in general, the concentration that gives 50% inhibition) was “Not Active”. Regarding `COCc1cc(Br)c(O)c(O)c1Cc1cc(Br)c(O)c(Cc2cc(Br)c(O)c(O)c2Cc2ccc(O)c(Br)c2)c1` [RAWSONOL], the IC50 (read-out: IC50) is 10 µM. On the same count and under the same terms, in the case of `OCc1c(Cc2ccc(O)c(Br)c2)c(O)c(O)c(Br)c1Cc1cc(Br)c(O)c(O)c1Cc1ccc(O)c(Br)c1` [ISORAWSONOL] it was 7.4 µM. For `OCc1cc(O)c(O)c(Br)c1`, the concentration for half-maximal inhibition (IC50) result is recorded as “Not Active”. Consider `OCc1cc(Br)c(O)c(O)c1Cc1ccc(O)c(Br)c1` [AVRAINVILLEOL], for which the IC50 (read-out: IC50) amounted to 18 µM.

For the origin of these results see ChEMBL document CHEMBL1148044, “Isorawsonol and related IMP dehydrogenase inhibitors from the tropical green alga Avrainvillea rawsonii” (J Nat Prod, 1994).
